Common to all, as to type: in vivo, Caenorhabditis elegans
For assay [1], the system named is C. elegans. The assay can be described thus: ETC inhibitor assays, survival of animals. Here is the method: Experiments were performed on at least three separate days, using 15-100 young adult animals per plate. Seeded plates were supplemented with rotenone (50 μM final concentration), antimycin A (50 μM final concentration), or oligomycin A (31 μM final concentration) 24 h before animals were transferred onto them. For azide toxicity, animals were placed in M9 buffer with 250 mM azide. Control plates were kept in the dark, and experimental plates were exposed to 1 Hz light (Quantum LED, 0.02 mW/mm^2) for the duration of the experiment. For all toxins, animals that were moving or those that moved in response to a light touch to the head were scored as alive. For rotenone, surviving animals were scored after 5 h. For antimycin A, animals were scored 16 h after exposure. For azide, animals were exposed for 1 h in M9 and allowed to recover for 1 h on a seeded culture plate and then survival was scored. Azide experimental plates were exposed to light (XCite LED, 0.19 mW/mm^2) for the duration of azide treatment and recovery. […]. For oligomycin A, animals were scored 18 h after exposure.
(§1) Experiments were carried out using a hypoxic chamber (Coy Laboratory Products, 5%/95% H2/N2 gas, palladium catalyst) at 26° C. with 50-100 animals per plate. O2 was <0.01%. Hypoxic preconditioning (PC) duration was 4 h, and control animals were incubated at 26° C. in room air for the same time. 1 Hz illumination (Quantum LED, 0.02 mW/mm^2) was carried out during PC period or during the hypoxic period. Hypoxic exposure was for 18.5, 21 h after PC. Twenty-four hours after hypoxia exposure, animals that were moving or those that moved in response to a light touch to the head were scored as alive. Data from days where PC was at least 15% effective for both +ATR and −ATR were used. Animals supplemented with ATR were allowed to lay eggs onto plates with no ATR that were subsequently used for HR experiments to minimize confounding effects of ATR. ATR from the parent animal was sufficient to provide active mtON in progeny as tested by the azide toxin assay described above. […] FCCP dissolved in ethanol was deposited onto seeded NGM plates.

For assay [2], the system named is C. elegans. Briefly: Hypoxia and reoxygenation with hypoxic preconditioning. The settings on record: +ATR, baseline survival, n=12 independent experiments. Here is the method:
as §1

Assay [3] deals with C. elegans. Briefly: Lifespan of mtON-expressing worms. An excerpt: Light treatment began at day 1 of adulthood for all experiments, a, Survival curves of mtON-expressing animals (extrachromosomal array). […] One-way ANOVA with Tukey's test; n=30 animals for day 4 conditions and 40 animals for day 10. […] The dotted arrow represents the molecular mechanisms to be investigated that link Δψm to aged physiology.
A) survival curve with the same conditions as FIG. 15B, but with light intensity (0.005 mW/cm2) below the threshold for mtON activation (0.01 mW/cm2). […] B) Survival curves of mtON-expressing animals versus mtON-expressing animals in a long-lived genetic background containing a constitutively active AMPK mutation.
Strain APW32 expresses mtON as an extrachromosomal array (mtON ext. chr. array), and strain APW273 expresses mtON in single copy through CRISPR/Cas9 genome integration (mtON CRISPR). See methods section for genotype details. Light intensity was varied to maintain temperature as best as possible, and proximal temperature readings directly adjacent to assay plates are reported to show local temperature variability from different incubators and from different light sources. All incubators were set to 20° C.

The source of these data is patent US20260167679A1, “FUSION PROTEIN TARGETING MITOCHONDRIA, METHOD OF MAKING AND USE THEREOF” (UNIVERSITY OF ROCHESTER, priority 2020, published 2026).

For the molecule `CC1=C(/C=C/C(C)=C/C=C/C(C)=C/C=O)C(C)(C)CCC1` [ATR, all trans-retinal, reference compound], the survival entry in the assay on C. elegans [1] (50 μM rotenone for 5 hours, +ATR −light (ATR alone)) is given as “protective”; with C. elegans [1] (azide toxin assay, progeny of ATR-supplemented parents, +ATR −light) it was 27.5%. The “survival after hypoxia and reoxygenation (baseline)” value with C. elegans [2] is reported as 49.7+/−20.3%. Further, in the assay with C. elegans [3] (ATR and light in wild-type animals), the lifespan result is reported as “did not affect lifespan”. Moreover, the lifespan or physiology result in the assay with C. elegans [3] (ATR supplementation alone) is given as “does not affect lifespan or physiology”.
As to `N#CC(C#N)=NNc1ccc(OC(F)(F)F)cc1` [FCCP, carbonyl cyanide p-(trifluoromethoxy)phenylhydrazone, reference compound], the lifespan result in the assay on C. elegans [3] (FCCP on its own) is “no effect on lifespan”.
